# From patent US12258547B2, “Cell culture plate, method for preparing thereof and method for detecting a substance” (UPM-Kymmene Corporation, priority 2019, dated 2025)
# Where a name gives a salt, the structure may show the parent alone.
# Assays:
# [1] = Experiment 1: WST-1 viability of BJ fibroblast monoculture, direct exposure; conditions: human
# From the text: (§1) Cell viability/cytotoxicity was always investigated using WST-1 assay. The assay principle is based on the conversion of the tetrazolium salt WST-1 into a colored dye by mitochondrial dehydrogenase enzymes. The soluble salt is released into the media. Within a given time period, the reaction produces a color change which is directly proportional to the amount of mitochondrial dehydrogenase in a given culture. As a result, the assay actually measures the net metabolic activity of cells. Theoretically, this is reflective of cell number • the more cells, the more dehydrogenase available to reduce the reagent.
# (§2) BJ cell suspension was prepared at a density of 40 000 cells/ml in BJ cell culture medium. 100 μl of this suspension was pipetted to a 96-well plate resulting in 4000 cells/well.
# (§3) Selegiline and paracetamol dilutions were prepared on the day of use. First, 1 mg/ml stocks were prepared from both drugs, then 200 and 20 μg/ml dilutions were prepared from paracetamol stock, and 200, 20, 10, 5 and 2 μg/ml dilutions from selegiline stock. The stocks and dilutions were prepared in BJ chemical dilution medium. Selegiline toxicity was studied more extensively than paracetamol, because there was no previous data of selegiline toxicity to BJ fibroblasts. Instead, paracetamol toxicity to human BJ fibroblasts has been extensively studied.
# (§4) BJ cell culture medium was removed from the cells by dumping and blotting the plate carefully on sterile towel. Immediately, 50 μl BJ cell culture medium was added to all wells, and then 50 μl test item dilutions (selegiline or paracetamol) or 50 μl vehicle control. […] BJ chemical dilution medium was used as vehicle control. […] One of the plates was incubated for 3 hrs and the other for 20 hrs.
# (§5) After the 3-hours or 20 hrs incubation, 10 μl WST-1 reagent was added into the wells. The plate was incubated for 2 hrs, thereafter absorbance was read at 450 nm.
# (§6) Blank values (contained all reagents, including drugs, but no cells) were subtracted from the absorbance data. […] The statistical difference between untreated control and treated cells was assessed using t-test (SigmaPiot).
# BJ fibroblasts [2] = experiment: as above; conditions: for toxicity to BJ fibroblast monocultures: drug as such, without HepaRG treatment
# From the text: as §1, §2, §3, §4, §5, §6
# [3] = Experiments 2-3: HepaRG/BJ co-culture separated by GrowDex barrier, dosing via HepaRG, WST-1, BJ side; conditions: human, decrease of BJ viability, 10 μg/ml via HepaRG, 3 hrs
# From the text: as §1, with “reagent. […]” for “reagent.”
# (§7) The mean absorbances were calculated separately for each well and both sides of the barrier. The decision on the acceptability of the data was made individually for each well. The data of the well was accepted provided that the barrier functioned properly, i.e. the ratio of HepaRG and BJ absorbances at 450 nm was >2.0.
# (§8) GrowDex barriers were prepared to split the wells of a 24-well plate into two “equally sized” compartments as follows. 250 μl GrowDex was pipetted to the wells (using positive displacement pipette) to construct the first layer of the barrier. The barriers were left to dry in the laminar hood for 1 hr with the lid open. Then a second layer was pipetted on the top of the first layer.
# (§9) BJ cell suspension was prepared at a density of 70 000 cells/ml BJ cell culture medium, and 150 μl of this suspension was pipetted to the right side of the barriers resulting in 10 500 cells/well.
# (§10) HepaRG suspension was prepared at a density of 2 million HepaRG cells/ml HepaRG® Thawing/Plating/General Purpose Medium 670. Medium was removed from the left side of the barrier. 150 μl HepaRG suspension, i.e., 300 000 cells was added to each well. The plate was gently agitated in back-and-forth and side-to-side manner, and the homogeneity of the cell distribution was ensured visually. The plate was placed back into cell culture incubator and the cells were let recover for 4 hrs before exposure.
# (§11) Medium was carefully removed from the HepaRG cells (left side of the barrier), and replaced with 75 μl/well HepaRG TOX Medium/well. This was performed one well at a time.
# BJ fibroblasts [4] = experiment: as above; conditions: for MEAN absorbance at 450 nm / MEDIAN absorbance at 450 nm / viability, % of control: BJ cells
# From the text: as §1, with “reagent. […]” for “reagent.”
# as §7, §8, §9, §10, §11
# [5] = Experiments 2-3: HepaRG/BJ co-culture separated by GrowDex barrier, dosing via HepaRG, WST-1, HepaRG side; type: cell-based; conditions: human
# Description: (§12) The soluble salt is released into the media.
# (§13) Eight barriers were prepared using this method. […] Four barriers were prepared using this method.
# (§14) The plate was incubated for 1 hr.
# (§15) This was performed one well at a time.
# (§16) Absorbance was read using the Multipoint measurement.
# HepaRG cells = experiment: as above; type: cell-based; conditions: for MEAN absorbance at 450 nm / MEDIAN absorbance at 450 nm / viability, % of control: HepaRG
# Description: as §12, §13, §14, §15, §16
# BJ fibroblasts [6] = experiment: Experiment 4: BJ cells exposed to direct or HepaRG-conditioned paracetamol, WST-1; type: cell-based, Human; conditions: 500 μg/ml, conditioned 20 hrs with HepaRG, 24 hrs exposure
# Description: The HepaRG cells that were left from Experiment 3 were seeded to a 25 cm^2 cell culture flask, and cultured for 1 week. Medium (HepaRG induction medium) was renewed twice during the week.
# The medium was removed from HepaRG cells (grown in a 25 cm^2 flask), and replaced by 2.5 ml of HepaRG TOX medium. Then 2.5 ml of 1 mg/ml paracetamol prepared in HepaRG TOX medium was added to the flask (final paracetamol concentration 500 μg/ml). HepaRG cells were incubated with paracetamol for 20 hrs.
# The medium was removed from BJ cells, and replaced by 500 μg/ml paracetamol in BJ chemical dilution medium or 500 μg/ml HepaRG-conditioned-paracetamol in HepaRG TOX-medium. BJ chemical dilution medium and HepaRG TOX medium served as vehicle controls. All treatments were tested in 16 parallel wells. The exposure time was 24 hrs.
# After the exposure, 10 μl WST-1 reagent was added to the wells. The plate was incubated for 2 hrs, and the absorbance was read at 450 nm.
# [7] = 1 μg/ml selegiline via HepaRG, 3 hrs
# [8] = 5 μg/ml selegiline via HepaRG, 3 hrs
# [9] = 10 μg/ml selegiline via HepaRG, 3 hrs
# [10] = 250 μg/ml paracetamol via HepaRG, 4 hrs
# [11] = 250 μg/ml paracetamol via HepaRG, 20 hrs
# [12] = 500 μg/ml paracetamol via HepaRG, 4 hrs
# [13] = 500 μg/ml paracetamol via HepaRG, 20 hrs
smiles,measurement,setting,value
"C#CCN(C)[C@H](C)Cc1ccccc1 [selegiline, Selegiline hydrochloride]",cytotoxicity at 500 μg/ml,[1],~10%
same,toxicity to BJ fibroblast monocultures,BJ fibroblasts [2],not toxic
same,increase of BJ fibroblast viability,BJ fibroblasts [2]; lowest selegiline concentrations,~10%
same,"cytotoxicity at 3 h, 10 μg/ml",[3],~25%
same,effect on BJ viability,"BJ fibroblasts [4]; 1 and 5 μg/ml via HepaRG, 3 hrs",seemed to increase
same,MEAN absorbance at 450 nm,BJ fibroblasts [4]; [7],1.429
same,MEDIAN absorbance at 450 nm,BJ fibroblasts [4]; [7],1.539
same,"viability, % of control",BJ fibroblasts [4]; [7],141.43 % of control
same,MEAN absorbance at 450 nm,BJ fibroblasts [4]; [8],1.219
same,MEDIAN absorbance at 450 nm,BJ fibroblasts [4]; [8],1.243
same,"viability, % of control",BJ fibroblasts [4]; [8],120.69 % of control
same,MEAN absorbance at 450 nm,BJ fibroblasts [4]; [9],0.760
same,MEDIAN absorbance at 450 nm,BJ fibroblasts [4]; [9],0.676
same,"viability, % of control",BJ fibroblasts [4]; [9],75.19 % of control
same,"cytotoxicity at 3 h, 10 μg/ml","[5]; 10 μg/ml, 3 hrs, read-out: decrease of HepaRG viability",~5%
same,effect on HepaRG viability,"HepaRG cells; 1 and 5 μg/ml, 3 hrs",seemed to increase
same,MEAN absorbance at 450 nm,"HepaRG cells; 1 μg/ml selegiline, 3 hrs",3.486
same,MEDIAN absorbance at 450 nm,"HepaRG cells; 1 μg/ml selegiline, 3 hrs",3.794
same,"viability, % of control","HepaRG cells; 1 μg/ml selegiline, 3 hrs",114.23 % of control
same,MEAN absorbance at 450 nm,"HepaRG cells; 5 μg/ml selegiline, 3 hrs",3.344
same,MEDIAN absorbance at 450 nm,"HepaRG cells; 5 μg/ml selegiline, 3 hrs",3.588
same,"viability, % of control","HepaRG cells; 5 μg/ml selegiline, 3 hrs",109.57 % of control
same,MEAN absorbance at 450 nm,"HepaRG cells; 10 μg/ml selegiline, 3 hrs",2.892
same,MEDIAN absorbance at 450 nm,"HepaRG cells; 10 μg/ml selegiline, 3 hrs",3.078
same,"viability, % of control","HepaRG cells; 10 μg/ml selegiline, 3 hrs",94.77 % of control
"CC(=O)Nc1ccc(O)cc1 [paracetamol, Paracetamol]",increase of BJ cell viability,"BJ fibroblasts [2]; 500 μg/ml, 3 hrs exposure",~9%
same,toxicity to BJ fibroblast monocultures,BJ fibroblasts [2],not toxic
same,effect on viability of BJ fibroblasts,"BJ fibroblasts [2]; up to 500 μg/ml, 3 and 20 hrs",did not reduce the viability
same,increase of BJ cell viability,"BJ fibroblasts [4]; 250 μg/ml via HepaRG, 4 hrs",~40%
same,increase of BJ viability,"BJ fibroblasts [4]; 250 μg/ml via HepaRG, 20 hrs",~30%
same,effect on BJ cell viability,"BJ fibroblasts [4]; 500 μg/ml via HepaRG, short exposure (4 hrs)",did not affect cell viability
same,MEAN absorbance at 450 nm,BJ fibroblasts [4]; [10],1.685
same,MEDIAN absorbance at 450 nm,BJ fibroblasts [4]; [10],1.777
same,"viability, % of control",BJ fibroblasts [4]; [10],140.89 % of control
same,MEAN absorbance at 450 nm,BJ fibroblasts [4]; [11],1.777
same,MEDIAN absorbance at 450 nm,BJ fibroblasts [4]; [11],1.801
same,"viability, % of control",BJ fibroblasts [4]; [11],128.23 % of control
same,MEAN absorbance at 450 nm,BJ fibroblasts [4]; [12],1.188
same,MEDIAN absorbance at 450 nm,BJ fibroblasts [4]; [12],1.164
same,"viability, % of control",BJ fibroblasts [4]; [12],99.34 % of control
same,MEAN absorbance at 450 nm,BJ fibroblasts [4]; [13],1.356
same,MEDIAN absorbance at 450 nm,BJ fibroblasts [4]; [13],1.325
same,"viability, % of control",BJ fibroblasts [4]; [13],97.89 % of control
same,"cytotoxicity at 4 h, 250 μg/ml","[5]; 250 μg/ml, 4 hrs, read-out: decrease of HepaRG viability",~15%
same,"cytotoxicity at 20 h, 500 μg/ml","[5]; highest concentration (500 μg/ml), 20 hrs, read-out: reduction of HepaRG viability",~10%
same,effect on HepaRG cell viability,"HepaRG cells; 500 μg/ml, short exposure (4 hrs)",did not affect cell viability
same,MEAN absorbance at 450 nm,"HepaRG cells; 250 μg/ml paracetamol, 4 hrs",3.571
same,MEDIAN absorbance at 450 nm,"HepaRG cells; 250 μg/ml paracetamol, 4 hrs",3.513
same,"viability, % of control","HepaRG cells; 250 μg/ml paracetamol, 4 hrs",85.58 % of control
same,MEAN absorbance at 450 nm,"HepaRG cells; 250 μg/ml paracetamol, 20 hrs",4.196
same,MEDIAN absorbance at 450 nm,"HepaRG cells; 250 μg/ml paracetamol, 20 hrs",4.239
same,"viability, % of control","HepaRG cells; 250 μg/ml paracetamol, 20 hrs",105.78 % of control
same,MEAN absorbance at 450 nm,"HepaRG cells; 500 μg/ml paracetamol, 4 hrs",4.074
same,MEDIAN absorbance at 450 nm,"HepaRG cells; 500 μg/ml paracetamol, 4 hrs",4.134
same,"viability, % of control","HepaRG cells; 500 μg/ml paracetamol, 4 hrs",97.65 % of control
same,MEAN absorbance at 450 nm,"HepaRG cells; 500 μg/ml paracetamol, 20 hrs",3.606
same,MEDIAN absorbance at 450 nm,"HepaRG cells; 500 μg/ml paracetamol, 20 hrs",3.771
same,"viability, % of control","HepaRG cells; 500 μg/ml paracetamol, 20 hrs",90.91 % of control
same,effect of HepaRG-treatment on BJ fibroblast viability,BJ fibroblasts [6],minor effect
